The values below come from publication PMC6058497 (Drug Delivery, 2018).

Each structure is given as a SMILES string. Values after ≈ are worked out from the molar mass of the structure shown. Like-named read-outs stand apart in the source and are kept apart here.

Data set [1] in a line: Solubility determination in distilled water (HPLC). In kind it is physicochemical. Conditions: +37 °C. The method, then: The amount of Cur was determined by using a high performance liquid chromatography (HPLC) system (Agilent 1200, Santa Clara, CA) with column Zorbax Eclipse XDB-C18, 4.6 × 50 mm at +30 °C and diode-array detector. Acetonitrile–acetate buffer (55:45) was used as eluent (pH = 3.4) with flow rate of 1.0 mL/min, and detection wavelength was 430 nm. […] At last, sample solutions were filtered and analyzed by HPLC.

Data set [2] concerns U-87 MG cells. Nature of the data set: MTT cytotoxicity test, U-87 MG. In kind it is cell-based, human. The method, then: (§1) Cancer cell lines U-87 MG (glioblastoma) and MCF-7 (breast cancer) were obtained from the ATCC (ATCC number HTB-14 and HTB-22, respectively). Immortalized human fibroblasts used as normal cells were kindly provided by Alexander G. Shilov (Institute of Cytology and Genetics SB RAS). The cells were maintained in DMEM plus 10% FBS, under a temperature of 37 °C, atmosphere of 5% of CO2 and 90% humidity.
(§2) MTT test was performed according to a standard procedure (Mosmann, [1983]). Cells were seeded in a 96-well plate at a density of 5 × 10^3 cells/well and after 24 h of adherence, the cells were treated with different concentration of test compounds and incubated for 48 h at 37 °C in an atmosphere of 5% CO2 in air. Untreated cells were used as negative control and doxorubicin was used as a positive control. After the incubation period, 10 μL MTT solution (3 mg/mL of PBS) was added to each well followed by incubation for 3 h under the condition mentioned above. Then, the MTT-containing medium was removed and the formazan crystals were dissolved with 100 μL of isopropanol. Absorbance was measured at 630 and 492 nm using a microplate reader (Thermo Scientific, Waltham, MA). The cell viability percentage was calculated using the following formula: Viability (%)=OD (treated cells)/OD (untreated cells) × 100, where OD was an optical density of solution.
On the technique in general: Tetrazolium dyes change colour on reduction, which living cells bring about.

Data set [3] in a line: Oral pharmacokinetic (bioavailability) study in rats. In kind it is in vivo. The conditions noted are these: male, Sprague Dawley; rat plasma, single oral dose 150 mg/kg Cur. As for the experimental part:
The pharmacokinetic study was carried out in male Sprague Dawley rats (10 weeks of age, 250–260 g body weight, provided by the Zhejiang Academy of Medical Science, Hangzhou, China). All animal (used in this experiment) handling procedures were performed in strict compliance with the PR China legislation for the use and care of laboratory animals and were approved by the University Committee for Animal Experiments. The animals were fasted overnight (12 h) and had free access to drinking water throughout the experimental period. […] To evaluate the concentration of Cur in plasma, blood was collected into heparinized Eppendroff tubes at different time points: 0.083, 0.25, 0.5, 1, 2, 4, 6, 8, 12, and 24 h post-dosing and centrifuged (Sigma Laboratory Centrifuge, Model 3K-30, Osterode am Harz, Germany) at 9391 × g for 5 min to separate the plasma. The plasma samples were stored at –80 °C until further analysis.
A 100 μL aliquot of plasma was transferred to a clean microcentrifuge tube and next treated with 100 μL of a solution containing 1000 U of β-glucuronidase in 0.1 M phosphate buffer (pH 6.8). The resulting mixture was then thoroughly vortexed and incubated at 37 °C for 1 h to hydrolyze the conjugated Cur. After incubation, 0.1 mL acetonitrile was added to 0.1 mL of plasma and centrifuged (Sigma Laboratory Centrifuge, Model3K-30, Osterode am Harz, Germany) at 9391 × g for 15 min, and then the supernatant was subjected to be analyzed by HPLC.
Standard pharmacokinetic parameters for free Cur and Cur SDs were calculated by linear trapezoidal method using the PKSolver, a freely available menu-driven add-in program for Microsoft Excel. The results were presented as mean ± standard error of the mean (SEM). One-way analysis of variance (ANOVA) was followed by Dunnett’s test for multiple comparisons statistical evaluation. p Values <.05 were considered significant.

On the set-up of data set [4]: method as in Priyadarsini, 2014. Conditions: acidic and neutral pH; ref Priyadarsini, 2014; cited from earlier work.
For data set [5] the following is noted: cited from earlier work.
Data set [6] is described as follows: Molecular weight distribution by gel permeation chromatography. In kind it is physicochemical. The conditions noted are these: dissolved in water. As for the experimental part:
The molecular weight distribution (MWD) of the samples was investigated by gel permeation chromatography (GPC) on the Agilent 1200 chromatograph with column PL aquel-OH 40 (Santa Clara, CA), 300 × 7.5 mm column at 30 °C with refractometric detector. The solvent used was 0.02% NaN3 aqueous solution and flow rate was 1 mL/min. The calibration was performed by standard dextrans with molecular weights of 1, 5, 12, 25, 80, 150, 270, and 410 kDa. Agilent GPC data analysis program was used to process the results (Santa Clara, CA).

Data set [7] has as its system MCF-7 cells. The experiment in a line: MTT cytotoxicity test, MCF-7. In kind it is cell-based, human. The conditions noted are these: for Viability: 48 h. As for the experimental part:
as §1, §2

Data set [8] has as its system immortalized human fibroblasts. Nature of the data set: MTT cytotoxicity test, immortalized human fibroblasts. In kind it is cell-based. The conditions noted are these: for Viability: 48 h. As for the experimental part: as §1, §2

`COc1cc(/C=C/C(=O)CC(=O)/C=C/c2ccc(O)c(OC)c2)ccc1O` [Free Cur, Curcumin] displayed a solubility at 12 h in data set [1] of 1.73 µg/mL (≈ 4.7 µM). For the same molecule, the Mean cell survival entry in data set [2] (Cur concentration range 25–100 μM, 48 h) is on record as “above 80%”. In data set [3], the AUC(0-inf) was 14300 ± 720 ng·h/mL, the AUC(0-t) is 12100 ± 360 ng·h/mL, the Cmax was determined as 1480 ± 30 ng/mL and the Tmax was 0.25 h. Moreover, the half-life in data set [3] was 5.07 ± 0.41 h. The Solubility in water entry in data set [4] is “practically insoluble”.

As to `CC1(C)[C@@H](O[C@H]2O[C@H](C(=O)O)[C@@H](O)[C@H](O)[C@H]2O[C@@H]2O[C@H](C(=O)O)[C@@H](O)[C@H](O)[C@H]2O)CC[C@]2(C)[C@H]3C(=O)C=C4[C@@H]5C[C@@](C)(C(=O)O)CC[C@]5(C)CC[C@@]4(C)[C@]3(C)CC[C@@H]12` [GA, Glycyrrhizic acid], the “Molecular weight of micelles formed in water” value in data set [5] (dissolved in water, ref Dushkin & Tolstikova, 2012) is given as 66 kDa. Besides, the Critical micelle concentration in data set [5] (ref Kornievskaya et al., 2007, Polyakov, 2011) is around 1 mM.

For `CC1(C)[C@@H](O[C@H]2O[C@H](C(=O)[O-])[C@@H](O)[C@H](O)[C@H]2O[C@@H]2O[C@H](C(=O)O)[C@@H](O)[C@H](O)[C@H]2O)CC[C@]2(C)[C@H]3C(=O)C=C4[C@@H]5C[C@@](C)(C(=O)[O-])CC[C@]5(C)CC[C@@]4(C)[C@]3(C)CC[C@@H]12.[Na+].[Na+]` [Na2GA, disodium glycyrrhizin], the “Molecular weight of micelles formed in water” value in data set [6] is 85–90 kDa. Besides, the Viability was found to be 98.2 ± 2.13% in data set [7] (MCF-7, 25 μM); 97.8 ± 3.33% in data set [7] (MCF-7, 50 μM); 98.2 ± 0.41% in data set [7] (MCF-7, 100 μM); 98.7 ± 1.59% in data set [7] (MCF-7, 200 μM); 99.6 ± 1.34% in data set [7] (MCF-7, 400 μM); 96.6 ± 2.39% in data set [2] (25 μM, 48 h). The Viability was determined as 95.9 ± 1.16% in data set [2] (50 μM, 48 h); 92.2 ± 2.75% in data set [2] (100 μM, 48 h); 92.2 ± 2.63% in data set [2] (200 μM, 48 h); 92.9 ± 1.65% in data set [2] (400 μM, 48 h); 96.2 ± 2.78% in data set [8] (25 μM); 97.3 ± 1.73% in data set [8] (50 μM). Besides, the Viability in data set [8] (100 μM) came to 98.8 ± 4.18%; in data set [8] (200 μM), 96.0 ± 1.66%; in data set [8] (400 μM), 98.3 ± 0.90%. Moreover, the Cytotoxicity entry in data set [7] (MCF-7, 25–400 μM) is reported as “no cytotoxicity”; in data set [2] (25–400 μM) it was “no cytotoxicity”; in data set [8] (25–400 μM), “no cytotoxicity”.

By solubility is commonly meant the concentration that dissolves in the medium under given conditions. Low values mean a poorly soluble substance, high ones a readily soluble substance. Usually AUC(0-inf) stands for the area under the concentration-time curve extrapolated to infinity. Low readings indicate less exposure, high ones more exposure. One may read the AUC(0-t) as exposure summed from dosing to a finite time, without extrapolation to infinity. A higher AUC(0-t) goes with high exposure. As usually defined, the Cmax is the peak of the concentration-time curve. What is called Tmax is the time at which the peak concentration occurs. The term half-life denotes the time in which the quantity being followed falls by half. Low readings indicate rapid decline, high ones slow decline.
